Laboratory results taken from PubChem BioAssay AID2050 (NMMLSC, 2009).
Calls of active or inactive are those of the source.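 Rule for the calls: active = EC50 at or below 30 µM together with a response span of at least a set limit; inactive = the rest.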

biological target: GTPase HRas (Homo sapiens) (UniProt P01112); experiment: activated Ras mutant GTP-binding inhibitors, SAR follow-up, biochemical, pyrazoline analogs, multiplex bead flow cytometry (AID 2050); details: GST-Ras beads, Bodipy-FL-GTP binding
Sequence (P01112 whole entry, looked up): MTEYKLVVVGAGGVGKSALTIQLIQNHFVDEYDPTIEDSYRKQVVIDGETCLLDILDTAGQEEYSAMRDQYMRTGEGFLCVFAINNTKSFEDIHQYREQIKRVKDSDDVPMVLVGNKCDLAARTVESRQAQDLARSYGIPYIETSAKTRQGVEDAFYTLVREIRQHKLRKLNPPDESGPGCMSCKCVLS

Row | SMILES | EC50
1 | COc1ccc(C2=NN(c3ccc(Cl)c(Cl)c3)C(c3ccc(OC)cc3)C2)cc1 (centres undefined) | > 30 µM (inactive)
2 | O=[N+]([O-])c1cccc(C2CC(c3ccccc3)=NN2c2ccccc2)c1 (centres undefined) | > 30 µM (inactive)
3 | COc1ccc(C2CC(c3ccc(C(F)(F)F)cc3)=NN2c2ccc(S(N)(=O)=O)cc2)cc1 (centres undefined) | > 30 µM (inactive)
4 | COc1ccc(C2=NN(c3ccc(Cl)cc3)C(c3ccccc3F)C2)cc1 (centres undefined) | > 30 µM (inactive)
5 | Fc1ccccc1C1CC(c2ccc(Br)cc2)=NN1c1ccc(Br)cc1 (centres undefined) | > 30 µM (inactive)
6 | COc1ccc(C2CC(C(C)(C)C)=NN2c2ccc(S(N)(=O)=O)cc2)cc1 (centres undefined) | > 30 µM (inactive)
7 | COc1ccc(C2CC(c3ccc(F)cc3)=NN2c2cccc(F)c2)cc1OC (centres undefined) | > 30 µM (inactive)
8 | COc1ccc(C2CC(c3ccc(Br)cc3)=NN2c2ccccc2Cl)cc1 (centres undefined) | > 30 µM (inactive)
9 | COc1ccc(C2CC(c3ccc(Cl)cc3)=NN2c2ccccc2)cc1OC (centres undefined) | > 30 µM (inactive)
10 | COc1ccc(C2CC(c3ccccc3)=NN2c2ccc(Cl)c(C(=O)O)c2)cc1 (centres undefined) | > 30 µM (inactive)
11 | COc1ccc(C2CC(C)=NN2c2ccc(S(N)(=O)=O)cc2)cc1 (centres undefined) | > 30 µM (inactive)
12 | CN(C)c1ccc(C2CC(c3ccc(Cl)cc3)=NN2c2ccccc2)cc1 (centres undefined) | > 30 µM (inactive)
13 | Clc1cccc(N2N=C(c3ccccc3)CC2c2ccccc2)c1 (centres undefined) | > 30 µM (inactive)
14 | COc1ccc(C2CC(c3ccccc3)=NN2c2ccc(Cl)c(C(=O)O)c2)cc1OC (centres undefined) | > 30 µM (inactive)
15 | CC(=O)Oc1ccc(C2=NN(c3ccccc3)C(c3ccccc3)C2)cc1 (centres undefined) | > 30 µM (inactive)
16 | O=[N+]([O-])c1ccc(N2N=C(c3ccccc3)CC2c2ccc(O)cc2)cc1 (centres undefined) | > 30 µM (inactive)
17 | COc1ccc(C2=NN(c3ccccc3)C(c3ccccc3C(F)(F)F)C2)cc1 (centres undefined) | inactive
18 | COc1ccc(C2CC(C3CCCCC3)=NN2c2ccc(S(N)(=O)=O)cc2)cc1 (centres undefined) | > 30 µM (inactive)
19 | Cc1onc(-c2ccccc2)c1-c1ccc(S(N)(=O)=O)cc1 | > 30 µM (inactive)
20 | COc1ccc(C2=NN(c3ccccc3)C(c3ccc(Cl)cc3)C2)cc1 (centres undefined) | inactive
21 | COc1ccccc1N1N=C(c2ccccc2)CC1c1ccccc1 (centres undefined) | > 30 µM (inactive)
22 | COc1ccc(C2=NN(c3cccc(F)c3)C(c3ccc(OC)cc3)C2)cc1 (centres undefined) | > 30 µM (inactive)

Row | SMILES | EC50
23 | CN(C)c1ccc(C2CC(c3ccc(Br)cc3)=NN2c2ccccc2)cc1 (centres undefined) | > 30 µM (inactive)
24 | COc1ccc(C2CC(c3ccccc3C(F)(F)F)=NN2c2ccc(S(N)(=O)=O)cc2)cc1 (centres undefined) | > 30 µM (inactive)
25 | COc1ccc(C2CC(c3ccccc3)=NN2c2ccc(C(=O)O)cc2)cc1 (centres undefined) | > 30 µM (inactive)
26 | FC(F)(F)c1cccc(N2N=C(c3ccc(Cl)cc3)CC2c2ccccc2Cl)c1 (centres undefined) | > 30 µM (inactive)
27 | O=[N+]([O-])c1cccc(C2CC(c3ccc(F)cc3)=NN2c2ccccc2)c1 (centres undefined) | > 30 µM (inactive)
28 | COc1ccc(C2CC(c3ccc(F)cc3)=NN2c2ccccc2)cc1OC (centres undefined) | > 30 µM (inactive)
29 | COc1ccc(C2CC(c3cccc(N(C)C)c3)=NN2c2ccc(S(N)(=O)=O)cc2)cc1 (centres undefined) | > 30 µM (inactive)
30 | COc1ccc(C2CC(c3cccs3)=NN2c2ccc(S(N)(=O)=O)cc2)cc1 (centres undefined) | > 30 µM (inactive)
31 | Fc1ccc(C2=NN(c3cccc(Br)c3)C(c3ccccc3)C2)cc1 (centres undefined) | > 30 µM (inactive)
32 | COc1ccc(C2=NN(c3ccc(S(N)(=O)=O)cc3)C(c3ccc(OC)cc3)C2)cc1 (centres undefined) | > 30 µM (inactive)
33 | Cc1ccc(-c2cc(C(F)(F)F)nn2-c2ccc(S(N)(=O)=O)cc2)cc1 | > 30 µM (inactive)
34 | COc1ccc(C2=NN(c3cccc(F)c3)C(c3ccc(Cl)cc3)C2)cc1 (centres undefined) | > 30 µM (inactive)
35 | COc1ccc(C2=NN(c3ccccc3)C(c3ccc(OC)c(OC)c3C(=O)O)C2)cc1 (centres undefined) | > 30 µM (inactive)
36 | CN(C)c1ccc(C2CC(c3ccc(F)cc3)=NN2c2ccccc2)cc1 (centres undefined) | > 30 µM (inactive)
37 | COc1ccc(C2CC(c3ccccc3)=NN2c2ccc(C(N)=O)cc2)cc1 (centres undefined) | > 30 µM (inactive)
38 | COc1ccc(C2=NN(c3ccccc3F)C(c3ccc(F)cc3)C2)cc1 (centres undefined) | > 30 µM (inactive)
39 | COc1ccc(C2CC(c3cccc(C(F)(F)F)c3)=NN2c2ccc(S(N)(=O)=O)cc2)cc1 (centres undefined) | > 30 µM (inactive)
40 | COc1ccc(C2CC(c3ccc(N(C)C)cc3)=NN2c2ccc(S(N)(=O)=O)cc2)cc1 (centres undefined) | > 30 µM (inactive)
41 | CN(C)c1ccc(C2CC(c3ccccc3)=NN2c2ccc([N+](=O)[O-])cc2)cc1 (centres undefined) | > 30 µM (inactive)
42 | COc1ccc(-c2cc(-c3ccccc3)nn2-c2ccc(S(N)(=O)=O)cc2)cc1 | > 30 µM (inactive)
43 | COc1ccc(C2CC(c3ccc(F)cc3)=NN2c2cc(Cl)ccc2Cl)cc1 (centres undefined) | > 30 µM (inactive)

More lines, now with the values ahead:

Row | EC50 | SMILES
44 | > 30 µM (inactive) | O=S(=O)(O)c1ccc(N2N=C(c3ccccc3)CC2c2ccccc2)cc1 (centres undefined)
45 | > 30 µM (inactive) | Cc1ccccc1C1CC(c2ccccc2)=NN1c1ccc(S(N)(=O)=O)cc1 (centres undefined)
46 | > 30 µM (inactive) | NS(=O)(=O)c1ccc(N2N=C(c3ccccc3)CC2c2cccc(Cl)c2)cc1 (centres undefined)
47 | > 30 µM (inactive) | O=S(=O)(c1ccc(N2N=C(c3ccccc3)CC2c2ccccc2)cc1)C(F)F (centres undefined)
48 | > 30 µM (inactive) | COc1ccc(C2CC(c3ccccc3)=NN2c2ccc(S(N)(=O)=O)cc2)cc1OC (centres undefined)
49 | > 30 µM (inactive) | O=C(O)c1ccc(N2N=C(c3ccccc3)CC2c2ccccc2)cc1 (centres undefined)
50 | > 30 µM (inactive) | COc1ccc(C2CC(c3cccc(C)c3)=NN2c2ccc(S(N)(=O)=O)cc2)cc1 (centres undefined)
51 | > 30 µM (inactive) | NS(=O)(=O)c1ccc(N2N=C(c3ccc(Br)cc3)CC2c2ccc(F)cc2)cc1 (centres undefined)
52 | > 30 µM (inactive) | CCc1ccc(C2=NN(c3ccc(S(N)(=O)=O)cc3)C(c3ccc(F)cc3)C2)cc1 (centres undefined)
53 | > 30 µM (inactive) | COc1ccc(C2CC(c3ccc(Br)cc3)=NN2c2ccc(S(N)(=O)=O)cc2)cc1 (centres undefined)
54 | > 30 µM (inactive) | Brc1ccc(N2N=C(c3ccccc3)CC2c2ccccc2)cc1 (centres undefined)
55 | > 30 µM (inactive) | COc1ccccc1C1CC(c2ccccc2)=NN1c1ccccc1 (centres undefined)
56 | > 30 µM (inactive) | COc1ccc(C2CC(c3ccccc3Br)=NN2c2ccc(S(N)(=O)=O)cc2)cc1 (centres undefined)
57 | > 30 µM (inactive) | NS(=O)(=O)c1ccc(N2N=C(c3ccccc3)CC2c2ccc(Cl)cc2)cc1 (centres undefined)
58 | > 30 µM (inactive) | Cc1ccccc1N1N=C(c2ccccc2)CC1c1cccc([N+](=O)[O-])c1 (centres undefined)
59 | > 30 µM (inactive) | NS(=O)(=O)c1ccc(N2N=C(c3ccccc3)CC2c2ccccc2Cl)cc1 (centres undefined)
60 | > 30 µM (inactive) | COc1ccc(C2CC(c3ccccc3)=NN2c2cccc(S(N)(=O)=O)c2)cc1 (centres undefined)
61 | > 30 µM (inactive) | NS(=O)(=O)c1ccc(N2N=C(c3ccccc3)CC2c2ccccc2Br)cc1 (centres undefined)
62 | > 30 µM (inactive) | COc1ccc(C2CC(c3ccccc3OC)=NN2c2ccc(S(N)(=O)=O)cc2)cc1 (centres undefined)
63 | inactive | NS(=O)(=O)c1ccc(N2N=C(c3ccc(Cl)cc3)CC2c2ccccc2)cc1 (centres undefined)
64 | > 30 µM (inactive) | Clc1ccc(N2N=C(c3ccccc3)CC2c2ccccc2)cc1 (centres undefined)
65 | > 30 µM (inactive) | Cc1ccccc1N1N=C(c2ccccc2)CC1c1ccc(N(C)C)cc1 (centres undefined)
66 | > 30 µM (inactive) | COc1ccc(C2CC(c3ccccc3Cl)=NN2c2ccc(S(N)(=O)=O)cc2)cc1 (centres undefined)
67 | > 30 µM (inactive) | COc1ccc(C2CC(c3ccc(Cl)cc3)=NN2c2ccc(S(N)(=O)=O)cc2)cc1 (centres undefined)

Row | EC50 | SMILES
68 | > 30 µM (inactive) | Cc1cccc(N2N=C(c3ccccc3)CC2c2ccccc2)c1 (centres undefined)
69 | > 30 µM (inactive) | COc1ccc(C2CC(c3ccsc3)=NN2c2ccc(S(N)(=O)=O)cc2)cc1 (centres undefined)
70 | inactive | O=S(=O)(c1ccc(N2N=C(c3ccc(Br)cc3)CC2c2ccccc2)cc1)C(F)F (centres undefined)
71 | > 30 µM (inactive) | COc1ccc(C2CC(c3cccc(Br)c3)=NN2c2ccc(S(N)(=O)=O)cc2)cc1 (centres undefined)
72 | > 30 µM (inactive) | COc1ccc(C2CC(c3ccc(C)cc3)=NN2c2ccc(S(N)(=O)=O)cc2)cc1 (centres undefined)
73 | > 30 µM (inactive) | NS(=O)(=O)c1ccc(N2N=C(c3ccccc3)CC2c2ccccc2)cc1 (centres undefined)
74 | > 30 µM (inactive) | FC(F)(F)c1ccccc1C1CC(c2ccc(Br)cc2)=NN1c1ccccc1 (centres undefined)
75 | > 30 µM (inactive) | COc1cccc(C2CC(c3ccccc3)=NN2c2ccc(S(N)(=O)=O)cc2)c1 (centres undefined)
76 | > 30 µM (inactive) | O=[N+]([O-])c1ccc(N2N=C(c3ccccc3)CC2c2ccccc2)cc1 (centres undefined)
77 | > 30 µM (inactive) | CN(C)c1ccc(C2CC(c3ccccc3)=NN2c2ccccc2)cc1 (centres undefined)
78 | > 30 µM (inactive) | COc1ccc(C2CC(c3cccnc3)=NN2c2ccc(S(N)(=O)=O)cc2)cc1 (centres undefined)
79 | > 30 µM (inactive) | COc1ccc(C2CC(c3ccc(F)cc3)=NN2c2ccc(S(N)(=O)=O)cc2)cc1 (centres undefined)
80 | > 30 µM (inactive) | COc1ccc(C2CC(c3ccccc3F)=NN2c2ccc(S(N)(=O)=O)cc2)cc1 (centres undefined)
81 | > 30 µM (inactive) | Cc1cccc(C2CC(c3ccccc3)=NN2c2ccc(S(N)(=O)=O)cc2)c1 (centres undefined)
82 | > 30 µM (inactive) | NS(=O)(=O)c1ccc(N2N=C(c3ccccc3)CC2c2cccc(Br)c2)cc1 (centres undefined)
83 | > 30 µM (inactive) | COc1ccc(C2CC(c3cccc(Cl)c3)=NN2c2ccc(S(N)(=O)=O)cc2)cc1 (centres undefined)
84 | > 30 µM (inactive) | COc1ccc(C2CC(c3cccc(OC)c3)=NN2c2ccc(S(N)(=O)=O)cc2)cc1 (centres undefined)
85 | > 30 µM (inactive) | COc1ccc(C2CC(c3ccncc3)=NN2c2ccc(S(N)(=O)=O)cc2)cc1 (centres undefined)
86 | > 30 µM (inactive) | COc1ccc(C2CC(c3ccccc3C)=NN2c2ccc(S(N)(=O)=O)cc2)cc1 (centres undefined)
87 | > 30 µM (inactive) | COc1ccc(C2CC(c3cccc(F)c3)=NN2c2ccc(S(N)(=O)=O)cc2)cc1 (centres undefined)
88 | > 30 µM (inactive) | NS(=O)(=O)c1ccc(N2N=C(c3ccccc3)CC2c2ccc(Br)cc2)cc1 (centres undefined)
89 | > 30 µM (inactive) | COc1ccccc1C1CC(c2ccccc2)=NN1c1ccc(S(N)(=O)=O)cc1 (centres undefined)
90 | > 30 µM (inactive) | Cc1ccc(C2CC(c3ccccc3)=NN2c2ccc(S(N)(=O)=O)cc2)cc1 (centres undefined)

same assay, conditions: GST-Ras beads, Bodipy-FL-GTP binding, measured here: Ki calculated from EC50

Row | SMILES | Ki [µM]
91 | COc1ccc(C2=NN(c3ccccc3)C(c3ccccc3C(F)(F)F)C2)cc1 (centres undefined) | 1.19
92 | COc1ccc(C2=NN(c3ccccc3)C(c3ccc(Cl)cc3)C2)cc1 (centres undefined) | 0.24

More lines, now with the values ahead:

Row | Ki [µM] | SMILES
93 | 0.01 | NS(=O)(=O)c1ccc(N2N=C(c3ccc(Cl)cc3)CC2c2ccccc2)cc1 (centres undefined)
94 | 0.18 | O=S(=O)(c1ccc(N2N=C(c3ccc(Br)cc3)CC2c2ccccc2)cc1)C(F)F (centres undefined)
